Results: patent US20220347186A1, “METHODS AND COMPOSITIONS FOR TREATING SICKLE CELL DISEASE AND THALASSEMIA” (THE UNIVERSITY OF CHICAGO, priority 2019, published 2022)
Entries after “also recorded” stand apart in the source; their conditions may differ.

How the values were obtained:
[1] = Lifespan in culture medium; format: physicochemical
K562 cells [2] = experiment: RT-qPCR quantification of gene expression in K562 cells; format: cell-based, human; details: for HBB, HBG1/2 and HBE1 expression compared with JQ1: CPI-0610 reapplied daily, PLX51107 once at day 0
Procedure: (§1) K562, HEL, and HL-60 cells were cultured in RPMI 1640 medium supplemented with 10% FBS. TF-1 cells were cultured in RPMI 1640 medium supplemented with 10% FBS and 4 ng/mL GM-CSF. Before treatment, TF-1 cells were washed 4× with RPMI 1640 without supplements, and cultured in RPMI 1640 medium with 10% FBS but no GM-CSF for 24 hours. 4 ng/mL GM-CSF or 3 units/mL EPO were added at the time of treatment set up. K562, HEL, and HL-60 cells were cultured as normal until treatment set up. JQ1 (Sigma-Aldrich, SML1524), CPI-0610 (Selleck Chemicals, S7853), and PLX51107 (MedChemExpress, HY-111422) were dissolved in DMSO to 10 mM concentration and stored in −80° C. All three inhibitors were applied to cells at 200 nM, with parallel DMSO treatment (0.002%) as control. JQ1 and PLX51107 were added to cell culture at day 0 without additional treatments up to day 5. CPI-0610 was reapplied to the cells on a daily basis.
(§2) cDNA libraries for mRNAs were made from 1 μg input RNA using High-Capacity cDNA Reverse Transcription Kit (ThermoFisher, 4368814). Gene expressions were quantified using Power SYBR Green PCR Master Mix (Thermofisher, 4367659). For microRNAs, cDNA libraries were made with Taqman Advanced miRNA cDNA Synthesis Kit (Thermofisher, A28007). miR-15A and miR-16-1 were quantified using the Taqman Advanced miRNA Assays (ThermoFisher, A25576) specific to hsa-miR-15a-5p (assay ID: 477858_mir) and hsa-miR-16-5p (assay ID: 477860_mir).

TF-1 cells [3] = experiment: RT-qPCR quantification of gene expression in TF-1 cells; format: cell-based, human; details: for HBB, HBG1/2 and HBE1 expression compared with JQ1: CPI-0610 reapplied daily, PLX51107 once at day 0
Procedure: as §1, §2

BET proteins = details: cited from earlier work; for Bromodomain preference (BD1 vs BD2): BET proteins; for Affinity among BET family members: BRD2/BRD3/BRD4/BRDT, literature refs 17, 18
K562 cells [4] = experiment: Cell growth and viability of K562 cells with BET inhibitor; format: cell-based; details: 200 nM vs DMSO control
Procedure: as §1

[5] = tested on: β-globin locus in TF-1 cells; experiment: 3C-qPCR interaction frequency at the β-globin locus in TF-1 cells; format: cell-based, human
Procedure: as §1, with “JQ1 and PLX51107 were added to cell culture at day 0 without additional treatments up to day 5. CPI-0610 was reapplied to the cells on a daily basis.” left out
Methods for chromatin conformation capture (3C) qPCR was adapted from Hagège et al. (42). […] The digestion efficiency, sample purity, and DNA concentration of each sample were assessed by qPCR to exclude low-quality samples prior to the 3C quantification. Calculated quantity of each primer pairs was normalized as number of templates per million B13 control site template. Additionally, because the Gg primer anneals to both HBG1 and HBG2 fragments, while the Ag primer anneals to only HBG2 fragment, the Gg primer signal was subtracted by Ag primer signal to quantify the HBG1 interaction frequency. […]

HEL cells [6] = experiment: RT-qPCR quantification of hemoglobin gene expression in HEL cells; format: cell-based, human; details: 200 nM
Procedure: as §1, §2

TF-1 cells [7] = experiment: RNA-seq gene expression in TF-1 cells; format: cell-based, human
Procedure: as §1
(§3) Sample RNA libraries were prepared using the KAPA mRNA HyperPrep Kit (Roche, KK8580) with 1 μg input RNA and submitted for sequencing. Raw reads in fastq format were aligned to the hg19 reference genome using HISAT2(38) with Gencode gene and transcript annotation (GRCh37.p13)(39). Gene expression was quantified and compared by tools in the Cuffliks package (40). GO analysis and term clustering was performed using g:Profiler and Cytoscape following the protocols published by Reimand et al (41).

HEL cells [8] = experiment: Cell growth and viability of HEL cells with BET inhibitor; format: cell-based; details: 200 nM vs DMSO control, days 0-3
Procedure: as §1

GATA1 in K562 cells = experiment: Immunoprecipitation and quantification of total and acetyl-GATA1; format: cell-based; details: K562 nuclear lysate
Procedure: Nuclear protein was extracted according to previously described protocol (45). 10% of the nuclear protein extraction was saved as input. The remaining nuclear extract was diluted with non-denaturing IP buffer (20 mM Tris-HCl pH 8, 137 mM NaCl, 10% glycerol, 1% Triton X-100, 2 mM EDTA) and pre-cleared with normal rat IgG (Santa Cruz, sc2026) and Dynabeads Protein G (ThermoFisher, 10004D). Pre-cleared solutions were split into two equal portions, and 5 μg of anti-GATA1 antibody (Santa Cruz, sc266) or normal rat IgG were added to either portion and incubated overnight at 4° C. overnight. Antibodies were then pulled-down using Dynabeads Protein G, and washed 1× with the IP buffer and 2× with PBS containing 1% Triton X-100. The beads were boiled in 2× protein loading buffer to dissociate the proteins. Input and IP-ed proteins were ran on SDS-PAGE gels and transferred to PVDF membranes. The input samples were blotted using anti-topoisomerase 1 (Abcam, ab109374) and anti-GATA1 antibodies, and the IP-ed samples were blotted with anti-acetyl-lysine antibody (Abcam, ab21623). Quantification of signal intensity was done by ImageJ, and GATA1 and acetyl-GATA1 signals were normalized to the topoisomerase 1 signals in each sample.

HEL cells [9] = experiment: Sanger sequencing of HBG1/2 cDNA, HBG1 vs HBG2 ratio, HEL cells; format: cell-based, human; details: DMSO vs JQ1 treatment, sequencing peak heights
HL-60 cells = experiment: RT-qPCR quantification of hemoglobin gene expression in HL-60 cells; format: cell-based, human; details: 200 nM
Procedure: as §1, with “CPI-0610 was reapplied to the cells on a daily basis.” left out
as §2

[10] = tested on: β-globin locus in K562 cells; experiment: 3C-qPCR interaction frequency at the β-globin locus in K562 cells; format: cell-based, human
Procedure: as §1
Methods for chromatin conformation capture (3C) qPCR was adapted from Hagège et al. (42). Briefly, 10 million cells were collected and fixed with 1% formaldehyde for 5 minutes in PBS with 10% FBS for 5 minutes, then quenched by 124 mM glycine on ice. The fixed cells were then lysed and digested by 400 units of EcoRI (NEB, R3101). Small aliquots of the samples were taken before and after the digestion as digestion controls. Following the digestion, the samples were diluted and ligated by T4 DNA ligase (NEB, M0202). The samples were then reverse-crosslinked, and DNA was purified by phenol-chloroform extraction. The digestion efficiency, sample purity, and DNA concentration of each sample were assessed by qPCR to exclude low-quality samples prior to the 3C quantification. Calculated quantity of each primer pairs was normalized as number of templates per million B13 control site template. Additionally, because the Gg primer anneals to both HBG1 and HBG2 fragments, while the Ag primer anneals to only HBG2 fragment, the Gg primer signal was subtracted by Ag primer signal to quantify the HBG1 interaction frequency. […]

K562 cells [11] = experiment: Benzidine-hematoxylin staining for hemoglobin producing cells; format: cell-based; details: 200 nM
Procedure: as §1
K562 cells were counted, and 200,000 cells were collected by spinning at 400 g. […]
At least three randomly selected fields of stained cells were imaged at 40× magnification. […] The numbers of benzidine-positive cells and the intensity of benzidine staining were quantified in the benzidine channel, whereas the total cell number and abnormal nuclear morphology were quantified in the hematoxylin channel. Results of all fields from each slide were summed for the final quantification.

K562 cells [12] = experiment: RNA-seq gene expression in K562 cells; format: cell-based, human
Procedure: as §1, §3

K562 cells [13] = experiment: Sanger sequencing of HBG1/2 cDNA, HBG1 vs HBG2 ratio, K562 cells; format: cell-based, human; details: DMSO vs JQ1 treatment, sequencing peak heights
[14] = TF-1 cells under proliferative condition, 200 nM
[15] = TF-1 cells, both proliferation and erythropoietic conditions

Cc1noc2c1-c1ccccc1C(c1ccc(Cl)cc1)=N[C@H]2CC(N)=O [CPI-0610]
Lifespan in culture medium [1]: short lifespan
HBB, HBG1/2 and HBE1 expression compared with JQ1 (K562 cells [2]; 200 nM): mimic the effects of JQ1
HBB, HBG1/2 and HBE1 expression compared with JQ1 (TF-1 cells [3]; TF-1 cells, 200 nM): mimic the effects of JQ1
Bromodomain preference (BD1 vs BD2) (BET proteins): preference for the second bromodomain (BD2)
Affinity among BET family members (BET proteins): comparable affinity

Cc1sc2c(c1C)C(c1ccc(Cl)cc1)=N[C@@H](CC(=O)OC(C)(C)C)c1nnc(C)n1-2 [JQ1]
Cell growth (K562 cells [4]): grow slower; also recorded: not significantly affected; also recorded: slightly suppresses cell growth, but this effect was not statistically significant; also recorded: slightly suppress cell growth, but this effect was not statistically significant
Cell viability (K562 cells [4]): unaffected; also recorded: not significantly affected; also recorded: did not affect cell viability
Interaction with LCR across the entire locus, except at the HBE1 promoter region ([5]; both proliferative and erythropoietic conditions, 72 hours): modest decrease
Interaction between 5′BG and upstream fragments ([5]; more prominent in the erythropoietic condition): slight decrease
HBB expression (HEL cells [6]): suppressing
HBE1 expression (HEL cells [6]): significantly upregulated
HBG1/2 expression (HEL cells [6]): significantly upregulated
GATA1 expression (TF-1 cells [7]; TF-1 cells): did not change
HBA1/2 expression (α-globin locus) (TF-1 cells [7]; TF-1 cells): upregulated
HBE1 expression (β-globin locus) (TF-1 cells [7]; TF-1 cells): specifically induced
HEMGN expression (TF-1 cells [7]; TF-1 cells): significantly suppresses
KLF1 expression (TF-1 cells [7]; TF-1 cells, erythropoietic condition): slightly decreased
ALAS2 expression (TF-1 cells [7]; TF-1 cells, especially under erythropoietic conditions): upregulated
KLF1 expression (TF-1 cells [7]; TF-1 cells, proliferative condition): significantly suppressed
NR2F2 expression (TF-1 cells [7]; proliferative TF-1 cells): significantly suppressed
Cell growth (HEL cells [8]): grow slower; also recorded: significantly suppress cell growth by Day 3
Cell viability (HEL cells [8]): unaffected; also recorded: did not affect cell viability
GATA1 acetylation (GATA1 in K562 cells; IP, anti-acetyl-lysine): remained unchanged; also recorded: does not affect
Total GATA1 level (GATA1 in K562 cells; normalized to TOP1): did not affect
Ratio of HBG1 vs. HBG2 (HEL cells [9]): no significant changes
HBB, HBG1/2 and HBE1 expression (HL-60 cells): had no effect
Interaction frequency of 5′BG (5′BGLT3 fragment) with the HBG1/2 region and the LCR [10]: significantly increase
Increase in interaction frequency between the LCR and the HBG promoter region ([10]; 72 hours of JQ1 treatment): over 2 fold
Interaction frequency between the LCR and the rest of the β-globin locus ([10]; 72 hours of JQ1 treatment): slight increases
Percentage of hemoglobin producing cells (benzidine-hematoxylin staining) (K562 cells [11]; day 3): ~6%
Percentage of hemoglobin producing cells (benzidine-hematoxylin staining) (K562 cells [11]; day 5): over 10%
Expression of heme biosynthesis pathway genes, notably ALAS2 (K562 cells [12]; RNA-seq): upregulated
Expression of α- and β-globin hemoglobin genes (K562 cells [12]; RNA-seq): increased the expression of all α- and β-globin hemoglobin genes except HBB and HBD
GATA1 expression (K562 cells [12]; RNA-seq): did not change
HEMGN expression (K562 cells [12]; RNA-seq): significantly suppresses
NR2F2 expression (K562 cells [12]; RNA-seq): did not change
Differentiation (GO analysis of up- and down-regulated genes) (K562 cells [12]; day 3 and day 5): specifically promotes erythroid, but not myeloid differentiation
Transcriptome (gene expression) change (K562 cells [12]; day 3 and day 5, JQ1 vs DMSO): substantially changed the transcriptome
miR-15A expression (K562 cells [2]): significantly upregulated
miR-16-1 expression (K562 cells [2]): significantly upregulated
HBB expression (K562 cells [2]; 200 nM, 5-day time course): unaffected
HBE1 expression (K562 cells [2]; 200 nM, 5-day time course): upregulated
HBG1/2 expression (K562 cells [2]; 200 nM, 5-day time course): upregulated
MYC expression (K562 cells [2]; 200 nM, up to 4 days after the initial treatment): consistently suppressed
BGLT3 expression increase (K562 cells [2]; RT-qPCR): 6 fold
HEMGN expression (K562 cells [2]; RT-qPCR): significantly suppressed
MYB expression (K562 cells [2]; RT-qPCR): significantly suppressed
miR-15A expression (TF-1 cells [3]; TF-1 cells): significantly upregulated
miR-16-1 expression (TF-1 cells [3]; TF-1 cells): significantly upregulated
HBB expression (TF-1 cells [3]; TF-1 cells treated with both EPO and JQ1): significantly decreased
HBE1 expression increase (TF-1 cells [3]; TF-1 cells treated with both EPO and JQ1, day 5): over 200 fold
HBB expression (TF-1 cells [3]; [14]): not observed
HBE1 expression (TF-1 cells [3]; TF-1 cells, 200 nM, without EPO): only upregulated
BCL11A expression (TF-1 cells [3]; TF-1 cells, RT-qPCR): significantly suppressed
MYB expression (TF-1 cells [3]; TF-1 cells, RT-qPCR): significantly suppressed
HEMGN expression (TF-1 cells [3]; TF-1 cells, RT-qPCR, especially under erythropoietic condition): significantly suppressed
Proportion of HBB transcripts relative to total β-globin transcripts (TF-1 cells [3]; [15]): significantly decreased
Proportion of HBE1 transcripts relative to total β-globin transcripts (TF-1 cells [3]; [15]): increased
Ratio of HBG1 vs. HBG2 (K562 cells [13]): no significant changes
Affinity among BET family members (BET proteins): higher affinity for BRD3 and BRD4

Cc1noc(C)c1-c1cnc2c(-c3ccc(C(=O)O)cc3)cn([C@@H](C)c3ccccn3)c2c1 [PLX51107]
HBB, HBG1/2 and HBE1 expression compared with JQ1 (K562 cells [2]; 200 nM): mimic the effects of JQ1
HBB expression (TF-1 cells [3]; [14]): significantly suppressed
HBB, HBG1/2 and HBE1 expression compared with JQ1 (TF-1 cells [3]; TF-1 cells, 200 nM): mimic the effects of JQ1
Bromodomain preference (BD1 vs BD2) (BET proteins): preferentially binds to BD1
Affinity among BET family members (BET proteins): somewhat lower affinity for BRDT
